The test system of the series is TaqI-endonuclease site TCGA (2508-2511) of exon 3 of the c-Ha-ras gene. Nature of the series: Detection of ethylnitrosourea induced mutations in the TaqI site of c-Ha-ras exon 3 in cultured human fibroblasts (selective PCR, plaque hybridization). Type of series: cell-based. On the procedure: Monolayer cultures of human foreskin fibroblasts 3229 (other cell lines of the same origin work equally well) are treated with the carcinogen ethylnitrosourea (ENU, 2mM) in DMSO or sham-treated with DMSO only and harvested 3 days later. Total DNA is extracted and digested exhaustively with BamHI yielding a 6.6 Kb fragment containing the c-Ha-ras gene. The digestion mixture is separated on a 1% agarose gel and the DNA in the region from 6.0-7.0 Kb eluted in a “Biotrap” apparatus as described in Example I. The completeness of the BamHI digestion and the recovery of the c-Ha-ras sequences from the gel are monitored by Southern-blotting with a 6.6 Kb c-Ha-ras probe. “Biotrap” purified DNA (6.0-7.0 Kb, corresponding to 25 μg BamHI digested genomic DNA) is then exhaustively digested with TaqI endonuclease and a fragment containing the TaqI site 2508-2511 (TCGA) of the c-Ha-ras gene amplified as described below and illustrated in FIG. 2. At the outset of the amplification 10 copies of an authentic “standard” sequence are added which contain the sequence ACGT at residues 2508-2511 (and a G-instead of the C residue at position 2503), but are otherwise identical to wt c-Ha-ras.
The digested DNA was amplified, utilizing a “nested primer approach” to selectively amplify only DNA containing a mutated TaqI restriction site.
1. Amplification Cycles 1-15. The cycles 1-15 were conducted with the outer primers (see FIG. 2) yielding a 237 bp fragment. Each cycle consists of a melting temperature of 81° C. (1.1 min), an annealing temperature of 55° C. (0.8 min), and an extension temperature of 65° C. (0.3 min). The initial contents of each amplification tube are as follows: 2.5 μl of “digested DNA” (i.e. TaqI digested 6.0-7.0 Kb BamHI fragment population described above); 0.75 μg of each outer primer (primers 1 and 2, see FIG. 2); 25 mM each of dATP, dCTP, dGTP and dTTP; 21% DMSO; 66.6 mM Tris-HCl, pH 8.8, 16.6 mM ammonium sulfate; 6.7 mM magnesium chloride; 10 mM 2-merc:aptoethanol, 6.7 μM EDTA, and 1.5 units Taq polymerase, in a total volume of 25 μl. To prevent evaporation during temperature cycling, an overlay of 3-4 drops of paraffin oil is added to each tube. (Note: Taq polymerase is added to the tubes after an initial melting period of 3 minutes at 92° C. Subsequently, one μl additions of a TaqI endonuclease-containing TaqI Mix are made to the appropriate amplification tubes during the annealing periods of cycles 1, 3, 5, 7 , 9, 11, 13 and 15). The TaqI mix contains 25 mM each of DATP, dCTP, dGTP and dTTP; 21% DMSO; 66.6 mM Tris-HC1, pH 8.8; 16.6 mM ammonium sulfate; 6.7 mM magnesium chloride; 10 mM 2-mercaptoethanol; 6.7 μm EDTA; 0.12 units/μl Taq polymerase and 1.2 units/μl TaqI endonuclease.
Amplification cycles 16-25 are conducted at a higher melting temprature (91° C.) and a lower DMSO concentration (12%) with the outer primers (primers 1 and 2, see FIG. 2). Each cycle consists of a melting temperature of 91° C. (0.8 min) and an annealing temperature of 57° C. (0.4 min). After the 15th cycle, the DMSO concentration is reduced to 12% by transferring 16 μl of each amplification solution to new tubes which contain 11 μl of a DMSO-free mixture consisting of 229 ng of each outer primer/11 μl; 25 mM each of dATP, dCTP, dGTP and dTTP; 66.6 mM Tris-HCl, pH 8.8; 16.6 mM ammonium sulfate; 6.7 mM magnesium chloride, 10 mM 2.-mercaptoethanol and 6.7 μM EDTA. Paraffin oil (3 drops) is added to each tube and the 16th cycle begun with an initial melting period of 3 min at 92° C., after which 1.5 units of Taq polymerase is added to each tube.
Amplification cycles 26-41 are conducted with the inner primers (primers 3 and 4, see FIG. 2), which contain “EcoRI tails” to facilitate later ligation into phage arms. With the chosen inner primers a 184 bp fragment is synthesized. In order to reduce competition between outer and inner primers, the outer primer concentration is reduced by a factor of 121 relative to the inner primer concentration. […]

The mark [1] stands for this setting: mean of 4 Petri dishes, 2 mM ethylnitrosourea, human fibroblasts (3229).

Values joined by “and” are separate entries in the source; they are usually repeats but may differ in a detail not shown here. Equal values may be shown once.

As for `CCN(N=O)C(N)=O` [ethylnitrosourea], the “copies of mutated sequence TCTA in the original DNA sample” value (25 μg DNA, 10 copies of standard gave 17% plaques, mutation 7%) is recorded as 6 copies. Under “2 mM ethylnitrosourea, human fibroblasts (3229)”, the “plaques containing wt sequence DNA or any of the remaining 11 possible base-pair mutations” value was “No plaques were detected”. The “frequency of induced base-pair mutation TCGA→TCTA at sequence 2508-2511 of the human c-Ha-ras gene” value (2 mM, human fibroblasts 3229, estimated against 10 copies of standard sequence) was ~7.5 mutations in 10^7 c-Ha-ras genes. For the same compound, the mutation frequency (TCGA→TCTA, 2 mM, human fibroblasts 3229, 25 μg DNA) was ~7.5×10^−7 per c-Ha-ras gene. Moreover, under setting [1], the “plaques containing mutated sequence TCTA, mean” value is recorded as 13.2 and the “plaques containing mutated sequence TCTA, mean share” value is listed as “(7%)”. Further, where the note is “number of plaques per Petri dish, DNA from 3 × 10^6 human fibroblasts (3229) treated with 2 mM ethylnitrosourea, harvested 3 days later”, the “plaques containing mutated sequence TCTA” value was 16 and 13 and 12.
